According to US11974990B2, “TXNIP-TRX complex inhibitors and methods of using the same” (City of Hope, priority 2018, dated 2024):
Entries after “also recorded” stand apart in the source; their conditions may differ.

Legend:
[1] = Preliminary cell toxicity study in THP1 cells; type: cell-based; conditions: human
[2] = system: TXNIP mRNA; experiment: TXNIP mRNA expression (RT-PCR) in THP1 cells under 25 mM glucose; type: cell-based, human; conditions: THP1, 25 mM glucose, concentration range of C1, 72 h (FIG. 9A)
Description: (§1) FIGS. 9A-9B. FIG. 9A. […] THP1 cells were cultured in 25 mM glucose with the indicated concentrations of C1 for 72 h. Cell were collected for total RNA preparation. RT-PCR were performed and data shown are the mean+SEM from triplicates. Statistical analysis was performed using one-way ANOVA, *<0.0001. FIG. 9B. […] THP1 cells were cultured in 25 mM glucose and C1 (uM) as indicated for 72 hours and collected for total RNA preparation. RT-PCR was performed. Data shown are the mean+SEM from triplicates. Statistical analysis was performed using one-way ANOVA: *<0.02; **<0.0001.
FIG. 13. C1 analogs affects TXNIP mRNA expression in THP1 cells. THP1 cells were cultured in 25 mM glucose with 5 uM of compounds for 72 h. Total RNA was collected and RT-PCR was performed in triplicate and data shown are the mean+SEM. Statistical analysis was performed using one-way ANOVA: *<0.0001.
(§2) RNA extraction and quantitative RT-PCR. RNA was extracted using the Direct-zol™ RNA MiniPrep Plus (Zymo Research). […] Diluted cDNA was quantified using real-time PCR performed with Power SYBR Green qPCR MasterMix (Applied Biosystem) and 7500 real-time PCR system (Applied Biosystems). […]
(§3) RNA extraction and quantitative RT-PCR. […] Diluted cDNA was quantified using real-time PCR performed with Power SYBR Green qPCR MasterMix (Applied Biosystem) and 7500 real-time PCR system (Applied Biosystems). […]

[3] = system: TNF-α mRNA; experiment: TNF-α mRNA expression (RT-PCR) in THP1 cells under high glucose; type: cell-based, human
Description: FIG. 8. […] High glucose induced TNF expression in THP1 cells. This HG induced TNF increase is alleviated by C1 in dose manner (1.25, 2.5 and 5 uM). Results shown are means±SE of triplet real-time PCRs. *:P=0.002 vs. HG only, by t tests; **:P=0.001 vs. HG only, by t tests.
as §1, §2, §3

[4] = molecular target: T1, TXNIP (Homo sapiens, UniProt Q9H3M7); experiment: DARTS assay (drug affinity responsive target stability) in THP1 cell extracts; type: binding; conditions: THP1 extracts after 25 mM glucose 72 h; 10 and 20 minutes, 0.5 to 4 uM lanes (FIG. 15)
T1 construct: Cell extracts were prepared; endogenous in cells; host or cells: THP1 cell lysate (25 mM glucose, 72 h)
T1 sequence (Q9H3M7 1-391): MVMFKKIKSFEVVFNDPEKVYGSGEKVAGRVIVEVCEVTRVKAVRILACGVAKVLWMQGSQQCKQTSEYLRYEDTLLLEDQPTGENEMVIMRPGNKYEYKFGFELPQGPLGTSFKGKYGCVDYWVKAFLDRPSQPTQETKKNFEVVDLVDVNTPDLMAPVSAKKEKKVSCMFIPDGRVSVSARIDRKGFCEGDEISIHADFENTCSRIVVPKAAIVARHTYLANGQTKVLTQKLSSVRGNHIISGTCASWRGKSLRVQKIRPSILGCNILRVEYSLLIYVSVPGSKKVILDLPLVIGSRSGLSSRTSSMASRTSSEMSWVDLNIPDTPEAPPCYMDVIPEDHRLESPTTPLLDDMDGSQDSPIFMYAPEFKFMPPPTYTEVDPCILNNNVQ
Description: FIG. 15. […] THP1 cell were cultured in RPMI 1640 medium in 25 mM glucose for 72 hours. Cell extracts were prepared. C1 was added at the indicated concentrations and protease was added except in control cells. Aliquots were withdrawn at 10, 20, 30 and 40 minutes and loaded onto 10% SDS gels. C1: compound 1; control: without protease.
Assay 3: DARTS Assay (drug affinity responsive target stability). We adopted the DARTS assay because it is a straightforward method to check if a compound interacts with TXNIP. In this assay, when a compound binds to its target molecule, it can reduce the rate of its proteolytic digestion.
The drug affinity response target stability assay (DARTS assay) is a method to identify potential protein targets (binders) of small molecules. The advantage of this method is being able to use the native small molecule without having to immobilize or modify the […] (e.g., by incorporation of biotin, fluorescent molecules, radioisotope, or photo-affinity labels). In this case, it relies on the protection against proteolysis conferred on TXNIP by interaction with a small molecule (lead compound).
Drug affinity responsive target stability (DARTS) assay. DARTS assay was conducted according to a published protocol (Lomenick et al., 2009; Pai et al., 2015). THP1 cells were lysed with extract buffer. […]

[5] = system: TXNIP mRNA; experiment: TXNIP mRNA expression (RT-PCR) in primary human pancreatic islets; type: cell-based; conditions: human pancreatic islets (500 IEQ), 25 mM glucose, 48 h (FIG. 18)
Description: FIG. 18. […] Human pancreatic islets (500 IEQ) were cultured with PIM(R) (Prodo Labs) in 25 mM glucose with C1 as indicated for 48 h. Total RNA was collected. RT-PCR was performed in triplicate and data shown are the mean+SEM. Statistical analysis was performed using one-way ANOVA: *<0.0001.
RNA extraction and quantitative RT-PCR. RNA was extracted using the Direct-zol™ RNA MiniPrep Plus (Zymo Research). Reverse transcription of RNA samples into cDNA was performed using the GeneAmp RNA PCR Kit (Applied Biosystems), dNTP (from Roche Applied Science), Rnase inhibitor, MULV Reverse Transcriptase and Random hexamers reagent (all from Invitrogen). Diluted cDNA was quantified using real-time PCR performed with Power SYBR Green qPCR MasterMix (Applied Biosystem) and 7500 real-time PCR system (Applied Biosystems). The HPRT1 gene was used as an internal control.

**Q.** With `CC(C)C(C(=O)O)N1C(=O)c2ccncc2C1=O` (stereo not drawn) [Compound C1, 2-(1,3-dioxo-1,3-dihydro-2H-pyrrolo[3,4-c]pyridin-2-yl)-3-methylbutanoic acid] as the compound, how does the IC50 [1] read?
**A.** The IC50 was 450 µM.

**Q.** What about the “TXNIP mRNA expression” value [2] of the same compound?
**A.** The value was “inhibits TXNIP mRNA expression; also recorded: attenuate high glucose induced expression of inflammatory cytokine molecules and TXNIP in monocytes; also recorded: inhibit TXNIP expression in a dose-dependent manner”.

**Q.** What about the “TNF-α mRNA expression” value ([3]; THP1, 25 mM glucose, concentration range of C1, 72 h (FIG. 9B)) of the same compound?
**A.** The value was “inhibits TNF-α mRNA expression; also recorded: lower levels of TNF-α mRNA”.

**Q.** And the “HG-induced TNF expression” value ([3]; THP1, high glucose, C1 1.25, 2.5 and 5 uM (FIG. 8))?
**A.** Its value is “attenuate high glucose induced expression of inflammatory cytokine molecules”.

**Q.** And the “protection of TXNIP from proteolysis” value [4]?
**A.** The value was “stabilizes TXNIP by binding to it; also recorded: bind to TXNIP and prevent its proteolysis; also recorded: protects TXNIP from proteolysis”.

**Q.** And the “TXNIP mRNA” value [5]?
**A.** Its value is “targets TXNIP mRNA; also recorded: efficiently inhibited TXNIP mRNA”.
